# Experimental data reported in patent US10183032B2, “Methods for treating bacterial infection” (Ball State Innovation Corporation, priority 2012, dated 2019).
# Columns and labels:
# Staphylococcus aureus = Staphylococcus aureus host cell invasion assay in HUVEC, flow cytometry; format: cell-based
# Method: In one embodiment, human umbilical vein endothelial cells (HUVEC, Life Technologies) are cultured in M200 medium supplemented with LSGS. RAW 264.7 cells (American Type Culture Collection, ATCC, Manassas, Va.) are cultured in RPMI supplemented with 10% FBS and L-glutamine. All cell types are maintained at 5% CO2, 37° C., in 75 cm^2 vented cap flasks (Thermo-Fisher). For assays, cultured cells are plated at 1×10^5 cells/ml in 35 mm culture dishes coated with Attachment Factor. The next day, cells are pretreated in culture medium containing the vehicle control or ML 141. For compound delivery, ML 141 first is suspended into DMSO or into PEG at a concentration of 5 mM. The 5 mM solution is diluted to 1 mM in the solvent and then diluted to the final concentration for each experiment in either serum-containing or serum-free medium. For vehicle control treatment, the same volume of PEG or DMSO as that of ML 141 is added to medium. The following day, the invasion assay is performed. For the shorter duration experiments, compound is added on the same day as the invasion assay, 1 hour prior to bacteria.
# In another embodiment, HUVEC (Millipore, Billerica, Mass.) are cultured in EndoGRO LS Complete Media (Millipore) and are maintained at 5% CO2, 37° C., in 75 cm^2 vented cap flasks (Thermo-Fisher). For the invasion assay, cultured cells are plated at 1×10^4 cells/ml in 96-well culture dishes coated with Attachment Factor. The next day, cells are pretreated in culture medium containing the vehicle control, ML 141, or ML 141 structural analog. For compound delivery, ML 141 and structural analogs first are suspended into PEG at a concentration of 5 mM. The 5 mM solution is diluted to 1 mM in the solvent and then is diluted to the final concentration for each experiment in serum containing medium. For vehicle control treatment, the same volume of PEG as that of ML 141 or of ML 141 structural analog is added to the medium. The following day, the invasion assay is performed. Bacteria are added directly to medium containing vehicle control, ML 141, or the ML 141 structural analog.
# Two days prior to the assay, TSB is inoculated with S. aureus (American Type Culture Collection #29213) and incubated overnight (225 rpm, 37° C.). Bacteria are subcultured the next day into fresh TSB. On the day of the assay, bacteria are pelleted (10000×g, 37° C., 3 min), are washed in saline, are pelleted as above, are resuspended in saline, then fluorescently labeled by incubation with rabbit anti-mouse IgG Alexa Fluor 488 (final concentration 8 μg/ml, RT, 20 min). Protein A, a S. aureus cell surface protein, avidly binds IgG thereby labeling the bacteria. Labeled bacteria are washed twice as above and are resuspended to 3×10^8 CFU/ml in saline. Host cells are incubated with the bacteria for 1 hour (1.2×10^8 CFU/ml for same-day recovery, 5×10^6 for recovery after 48 hours, 1.4×10^7 CFU/ml; 5% CO2, 37° C.). Following infection, extracellular bacteria are removed by extensive washes with PBS and incubation of the host cells with antimicrobials that have limited mammalian membrane permeability (lysostaphin, 20 μg/ml and gentamicin, 50 μg/ml; 45 min for same-day recovery studies, 48 hours for 2-day recovery studies; 5% CO2, 37° C.). To detect the level of infection using flow cytometry, cells that have been infected with fluorescently-labeled bacteria are washed extensively with PBS, lifted from 96-well plate by incubation with trypsin, washed extensively in FACS buffer (2% BSA/0.1% sodium azide/PBS), fixed (FACS buffer containing 0.74% formaldehyde), and are counted using an Accuri flow cytometer (BD, Franklin Lakes, N.J.). They are also lifted from culture dishes using cell scrapers, pelleted, fixed (1% BSA/0.74% formaldehyde/PBS), and are counted using an Accuri flow cytometer. For enumeration of the infecting bacteria, intracellular bacteria are released from host cells using 1% saponin/PBS (20 min, 5% CO2, 37° C.) and serial dilutions are plated on TSA (16 hours, 37° C.). […]
# [1] = tested on: Human umbilical vein endothelial cells; experiment: Cytotoxicity assay (XTT), HUVEC; format: cell-based; conditions: HUVEC treated overnight, PEG solvent
# Method: FIG. 6A illustrates that neither cytotoxicity nor bactericidal activity is detected. Human umbilical vein endothelial cells (HUVEC) were pretreated (18 hours) with the vehicle control polyethylene glycol (PEG) or with ML 141 and viability assessed using an XTT assay. The formazan dye produced in living cells was detectable at an absorbance wavelength of 490 nanometers and used as an indicator of cell viability. Absorbance values were not different amongst the groups (p>0.05 by one-way ANOVA; n=3/treatment).
# HUVEC are plated at a density of 1.2×10^4 cells/ml into 96-well dishes coated with Attachment Factor. The next day, cells are pretreated with the vehicle control DMSO or with ML 141 (18 hours). An XTT-reducing assay is performed and absorbance read at 490 nanometers using a Bio-Rad plate reader.
# fibronectin = experiment: Fibronectin adhesion assay, HUVEC; format: cell-based, human; conditions: ML 141 10 μM, 18-20 h; re-plated 2 h; vehicle 24±4%
# Method: FIG. 10C is a graph illustrating that ML 141 decreases cell adhesion to fibronectin-coated surface. HUVEC were pretreated as in FIGS. 10A and 10B, lifted from culture dishes using cell scrapers, and re-plated (2 h) onto non-tissue culture treated plates coated with fibronectin and blocked with bovine serum albumin. Following extensive washes, cells were recovered using trypsin and counted using an Accuri C6 flow cytometer (*p<0.05 by t-test on log-transformed data pooled from 2 independent experiments, n=8/treatment).
# HUVEC were plated and pretreated as described for the invasion assay. 96-well, non-tissue culture treated plates (Sarstedt, Newton, N.C.) were coated with fibronectin (20 μg/ml; 2 h; 37° C.), washed with PBS, and blocked with bovine serum albumin (2%, 30 min, RT). HUVEC were lifted from the 35 mm dishes using cell scrapers, 100 μl counted for normalization using the Accuri C6, and 200 μl transferred to the 96-well plate (2 h, 5% CO2, 37° C.). After extensive washes in PBS, cells were removed from the plate using trypsin, washed in FACS buffer, fixed, and 100 μl counted. These cell counts were normalized to those that had been taken prior to plating on the fibronectin-coated plate.
# [2] = tested on: vinculin-containing adhesion complexes; experiment: Vinculin-containing adhesion complexes in HUVEC; format: cell-based, human; conditions: ML 141 10 μM, 18-20 h, vehicle control 64%
# Method: FIG. 10A is an image depicting ML 141 inhibition of CDC42 limiting the formation of adhesion complexes. Human umbilical vein endothelial cells (HUVEC) were incubated (18-20 h) with the vehicle control dimethyl sulfoxide (DMSO) or with ML 141 (10 μM). Pretreated HUVEC were fixed, permeabilized, blocked, and stained with anti-vinculin followed by anti-mouse Alexa Fluor 488. Arrows indicate vinculin-containing complexes. Data are presented as the % of cells where vinculin-containing adhesion complexes were detected. 100-200 cells/treatment were evaluated from randomly selected fields (p<0.001 by χ^2). Scale bar 50 μm.
smiles,measurement,setting,value
"COc1ccc(C2CC(c3ccccc3)=NN2c2ccc(S(N)(=O)=O)cc2)cc1 (centres unmarked) [ML 141, 4-[3-(4-methoxyphenyl)-5-phenyl-3,4-dihydropyrazol-2-yl]benzenesulfonamide]",decrease of invasion,"Staphylococcus aureus; ML 141 10.0 μM in PEG, 18 hours, HUVEC infected 1 hour",more than 80%
same,inhibition at 10 µM,"Staphylococcus aureus; Staphylococcus aureus, HUVEC, 18 h, read-out: inhibition of invasion",~50%
same,"Cytotoxicity (XTT, absorbance 490 nm)",[1],not detectable
same,adherence of HUVEC to fibronectin-coated plates,fibronectin,14±2%
same,% of cells with vinculin-containing adhesion complexes,[2],37%
